Test results published in patent US8598339B2, “Withanolide isolated from Physalis longifolia and analogs and methods of use thereof” (University of Kansas, priority 2011, dated 2013).

What was measured:
NCI-H727 cells = test: PARP cleavage and caspase 3 activation, NCI-H727; format: cell-based; details: 1 μM
Experimental: In similar analysis with X003, 50% of UMSCC-2 HNSCC cells underwent apoptosis (early and late) at 1 μM, while 90% of cells underwent apoptosis at 3 μM. Apoptosis with 1 μM X003 was confirmed with PARP cleavage and caspase 3 activation in NCI-H727 cells.

[1] = tested on: hsf1 and client proteins of Hsp90 in Hs766T cells; test: Western blot, Hs766T; format: cell-based
[2] = tested on: hsf1 and client proteins of Hsp90 in MIA PaCa-2 cells; test: Western blot, MIA PaCa-2; format: cell-based
[3] = tested on: HSF1, Hsp70 and Hsp40 mRNA; test: HSF1, Hsp70 and Hsp40 mRNA levels; format: cell-based; details: Control 1.0
Experimental: Levels of HSF1, Hsp70 and Hsp40 mRNA were also determined in response to treatment with SX002 or X003 for 8 or 16 hours.

[4] = tested on: Hsp70 and Hsp40 in Hs766T cells; test: Heat shock-induced Hsp70 and Hsp40 protein levels, Hs766T; format: cell-based; details: pretreatment 8 hours; 30-minute heat shock at 42° C.; further 8 hours
Experimental: For this analysis, Hs766T cells were incubated with X003 for 8 hours, followed by a 30-minute heat shock at 42° C. The cells were further incubated for 8 hours and Hsp70 and Hsp40 levels were determined.

[5] = tested on: Hs766T pancreatic cancer cells; test: Co-treatment with carfilzomib, apoptosis, Hs766T; format: cell-based; details: 0.1, 0.2 or 0.3 μM X003 with carfilzomib (10 nM)
Experimental: To determine whether the instant withanolides could be used in combination with other treatment regimes, Hs766T pancreatic cancer cells were either treated with 0.1, 0.2 or 0.3 μM X003; 10 or 20 nM carfilzomib; or co-treated with carfilzomib (10 nM) and either 0.1, 0.2 or 0.3 μM X003.

DRO81-1 cells = test: Annexin V/PI staining and flow cytometry, DRO81-1; format: cell-based; details: 24-hour exposure
[6] = tested on: RET, mTOR, 4E-BP1, P70S6 kinase, akt, pERK in medullary thyroid cancer cells; test: Mechanistic pathway protein levels in medullary thyroid cancer cells; format: cell-based; details: 24 hours; 0.5, 1, 3, and 6 μM
Experimental: Additional analysis of X005, X032 and X033 was carried out in medullary thyroid cancer cells. […] Therefore, this analysis indicates the importance of this double bond in the A-ring to anti-cancer activity.

[7] = In vitro metabolism, human liver microsomes; format: in vitro ADME; details: 1.0E-06 M
Experimental: (§1) The in vitro metabolism of […], as compared to known reference compounds, was analyzed using liver microsomes from human, dog (Beagle), rat (Sprague-Dawley) and mouse (CD-1). […] Results are from two independent tests.

[8] = In vitro metabolism, dog liver microsomes; format: in vitro ADME, dog (Beagle); details: 1.0E-06 M
Experimental: as §1

[9] = In vitro metabolism, rat liver microsomes; format: in vitro ADME, rat (Sprague-Dawley); details: 1.0E-06 M
Experimental: as §1

[10] = tested on: Salmonella typhimurium TA100; test: Cytotoxicity in tester strain TA100 without S9; format: cell-based
MDA-MB-231 = test: MTS assay, MDA-MB-231; format: cell-based
Experimental: (§2) Cell proliferation was analyzed using MTS assay.

[11] = tested on: HCC1937 (BRCA-1 mutant) cells; test: MTS assay, HCC1937; format: cell-based
Experimental: as §2

BT20 = test: MTS assay, BT20; format: cell-based
Experimental: as §2

MCF-7 = test: MTS assay, MCF-7; format: cell-based
Experimental: as §2

MRC5 = test: MTS assay, MRC5; format: cell-based; details: MRC5 (normal)
Experimental: as §2

HMLEC = test: MTS assay, HMLEC; format: cell-based; details: HMLEC (normal)
Experimental: as §2

MDA-MB-231 cells = test: Clonogenic assay, MDA-MB-231; format: cell-based; details: 1-2 μM; treated 24 hours, cultured two weeks
BT20 cells = test: Clonogenic assay, BT20; format: cell-based; details: 1-2 μM; treated 24 hours, cultured two weeks
MCF-7 cells = test: Annexin V-FITC/Propidium Iodide apoptosis, MCF-7; format: cell-based; details: 1-4 μM, 24 and 48 hours
Description: Therefore, this cell line was not very sensitive to X001 in this assay.

[12] = tested on: caspase-3, PARP, BRCA-1, HSF1, mutant p53, Notch1, Jagged1 in MDA-MB-231 cells; test: Western blot, MDA-MB-231; format: cell-based; details: 24-hour or 48-hour treatment
Ames test strain TA98 = test: Ames test, TA98
Ames test strain TA100 = test: Ames test, TA100
Ames test strain TA1535 = test: Ames test, TA1535

SMILES: CC(=O)OCC1=C(C)C[C@H]([C@@H](C)C2CC[C@H]3[C@@H]4C[C@H]5O[C@]56[C@@H](OC(C)=O)C=CC(=O)[C@]6(COC(C)=O)[C@H]4CC[C@]23C)OC1=O (stereo partly shown) [Compound X003, 4,19,27-triacetyl X001]
- apoptosis by PARP cleavage and caspase 3 activation (NCI-H727 cells): confirmed
- stress and client protein response (western blot) [1]: induced oxidative and proteotoxic stress, while depleting hsf1 and client proteins of Hsp90
- stress and client protein response (western blot) [2]: induced oxidative and proteotoxic stress, while depleting hsf1 and client proteins of Hsp90
- HSF1 mRNA level ([3]; 8 hours): 1.2
- HSP40 mRNA level ([3]; 8 hours): 8.3
- HSP70 mRNA level ([3]; 8 hours): 30.8
- HSF1 mRNA level ([3]; 16 hours): 1.1
- HSP40 mRNA level ([3]; 16 hours): 14.2
- HSP70 mRNA level ([3]; 16 hours): 183.1
- heat shock-induced Hsp70 and Hsp40 protein levels [4]: failed to block
- apoptosis on co-treatment with carfilzomib [5]: enhances

SMILES: CC1=C(CO)C(=O)O[C@@H]([C@@H](C)C2CC[C@H]3[C@@H]4C[C@H]5O[C@]56[C@@H](O)C=CC(=O)[C@]6(CO)[C@H]4CC[C@]23C)C1 (stereo partly shown) [Compound X001]
- induction of apoptosis (DRO81-1 cells; 5 μM): apoptosis was induced
- cells gated toward late apoptosis (DRO81-1 cells; 10 μM): 65%
- pERK levels [6]: increased at higher concentrations
- total and phosphorylated protein levels of RET, mTOR, P706S kinase [6]: down-regulated in a dose-dependent manner
- Mean % Parent Compound Remaining [7]: 27%
- Mean % Parent Compound Remaining [8]: 28%
- Mean % Parent Compound Remaining [9]: 31%
- Cytotoxicity (% of Control) ([10]; 1.0E−04 M): 107 % of Control
- Cytotoxicity (% of Control) ([10]; 1.0E−05 M): 101 % of Control
- Cytotoxicity (% of Control) ([10]; 1.3E−06 M): 96 % of Control
- Cytotoxicity (% of Control) ([10]; 2.5E−05 M): 93 % of Control
- Cytotoxicity (% of Control) ([10]; 2.5E−06 M): 101 % of Control
- Cytotoxicity (% of Control) ([10]; 5.0E−05 M): 101 % of Control
- Cytotoxicity (% of Control) ([10]; 5.0E−06 M): 103 % of Control
- Cytotoxicity (% of Control) ([10]; 6.3E−07 M): 99 % of Control
- Log ECF (MDA-MB-231): 1.25
- Log ECF [11]: 0.71
- Log ECF (BT20): 0.91
- Log ECF (MCF-7): 1.88
- Log ECF (MRC5): 4.59
- Log ECF (HMLEC): 2.54
- colony formation (MDA-MB-231 cells): strongly inhibited
- colony formation (BT20 cells): not as potent
- induction of apoptosis (MCF-7 cells): did not induce apoptosis
- levels of BRCA-1, HSF1, mutant p53, Notch1 and Jagged1 ([12]; 1, 2, 4, or 8 μM): decreased
- caspase-3 activation (concentration) ([12]; tested 1, 2, 4, or 8 μM): 4 to 8 µM
- Positive Significance (− to +++) (Ames test strain TA98; 1.0E−04 M, TA98 +S9): −
- Positive Significance (− to +++) (Ames test strain TA98; 1.0E−04 M, TA98 −S9): −
- Positive Significance (− to +++) (Ames test strain TA98; 1.0E−05 M, TA98 +S9): −
- Positive Significance (− to +++) (Ames test strain TA98; 1.0E−05 M, TA98 −S9): −
- Positive Significance (− to +++) (Ames test strain TA98; 5.0E−05 M, TA98 +S9): −
- Positive Significance (− to +++) (Ames test strain TA98; 5.0E−05 M, TA98 −S9): −
- Positive Significance (− to +++) (Ames test strain TA98; 5.0E−06 M, TA98 +S9): −
- Positive Significance (− to +++) (Ames test strain TA98; 5.0E−06 M, TA98 −S9): −
- Positive Significance (− to +++) (Ames test strain TA100; 1.0E−04 M, TA100 +S9): −
- Positive Significance (− to +++) (Ames test strain TA100; 1.0E−04 M, TA100 −S9): −
- Positive Significance (− to +++) (Ames test strain TA100; 1.0E−05 M, TA100 +S9): −
- Positive Significance (− to +++) (Ames test strain TA100; 1.0E−05 M, TA100 −S9): −
- Positive Significance (− to +++) (Ames test strain TA100; 5.0E−05 M, TA100 +S9): −
- Positive Significance (− to +++) (Ames test strain TA100; 5.0E−05 M, TA100 −S9): −
- Positive Significance (− to +++) (Ames test strain TA100; 5.0E−06 M, TA100 +S9): −
- Positive Significance (− to +++) (Ames test strain TA100; 5.0E−06 M, TA100 −S9): −
- Positive Significance (− to +++) (Ames test strain TA1535; 1.0E−04 M, TA1535 +S9): −
- Positive Significance (− to +++) (Ames test strain TA1535; 1.0E−04 M, TA1535 −S9): −
- Positive Significance (− to +++) (Ames test strain TA1535; 1.0E−05 M, TA1535 +S9): −
- Positive Significance (− to +++) (Ames test strain TA1535; 1.0E−05 M, TA1535 −S9): −
- Positive Significance (− to +++) (Ames test strain TA1535; 5.0E−05 M, TA1535 +S9): −
- Positive Significance (− to +++) (Ames test strain TA1535; 5.0E−05 M, TA1535 −S9): −
- Positive Significance (− to +++) (Ames test strain TA1535; 5.0E−06 M, TA1535 +S9): −
- Positive Significance (− to +++) (Ames test strain TA1535; 5.0E−06 M, TA1535 −S9): −
